Test results reported in patent US20150297603A1, “HIGH DRUG LOAD TABLET FORMULATION OF [(1R), 2S]-2-AMINOPROPIONIC ACID 2-[4-(4-FLUORO-2-METHYL-1H-INDOL-5-YLOXY)-5-METHYLPYRROLO[2,1-f][1,2,4]TRIAZIN-6-YLOXY]-1-METHYLETHYL ESTER” (Bristol-Myers Squibb Company, priority 2011, published 2015).

Assays:
Assay type in all cases: physicochemical
[1] = pKa of brivanib alaninate; conditions: free base
Excerpt: (§1) Brivanib alaninate is an ester compound that is formulated as a free base.

[2] = Degradation of drug during wet granulation process; conditions: wet granulation process (water as processing aid)
Excerpt: The use of wet granulation process for brivanib alaninate was not expected to be suitable because brivanib alaninate degrades by hydrolysis. Therefore, any person skilled in the art of pharmaceutical formulation would logically implement all measures to minimize the exposure of drug to water during handling, formulation, processing, and storage.
The manufacturing process of this formulation generally involves mixing the drug with dry powder excipients, such as with one or more binder, disintegrant, and filler. Water is then added to this premix while it is being continuously mixed in a mixer such as a high shear granulator. Alternatively, the binder may not be added as a dry powder to the premix, but dissolved in water. Addition of water with continuous mixing leads to the formation of granules, or granulation. The granules are then dried in dry, hot air using equipment and processes such as fluid bed drying or tray drying. Once dried, the granules may be milled using equipment such as comil or Fitzmil to reduce and/or reduce the width of distribution of particle size of granules. The granules are then mixed with extra-granular ingredients, which may include one or more of disintegrant, filler, glidant, and lubricant. The final blend is then compressed on a tablet press into core tablets. The core tablets may optionally be coated with a nonfunctional film coat.

[3] = Stability of solid drug substance on storage; conditions: stored at room temperature protected from moisture
Excerpt: (§2) Its main degradation pathway at neutral and basic pH is hydrolysis to the parent compound, brivanib. Under acidic conditions, it can also undergo diaryl ether cleavage in solution as shown below.

[4] = Stability in solution as a function of pH; conditions: at acidic pH and at high pH
Excerpt: as §1, §2

pH dependent solubility = test: pH dependent solubility
Excerpt: as §1

pKa [1]: 6.9
stability of solid drug substance [3]: acceptable stability
degradation [4]: degrades rapidly
solubility (pH dependent solubility; acidic pH): increasing solubility
solubility (pH dependent solubility; neutral and basic pH): limited solubility
SMILES: Cc1cc2c(F)c(Oc3ncnn4cc(OC[C@@H](C)OC(=O)[C@H](C)N)c(C)c34)ccc2[nH]1 [Brivanib alaninate, [(1R), 2S]-2-aminopropionic acid 2-[4-(4-fluoro-2-methyl-1H-indol-5-yloxy)-5-methylpyrrolo[2,1-f][1,2,4]triazin-6-yloxy]-1-methylethyl ester]
degradation of the drug by wet granulation [2]: did not really result in significant degradation
